For the test, the system named is HepG2 cells. Kind of test: Sulf2 silencing and Sorafenib in liver cancer cell model. The test is classed as cell-based. To be noted: Homo sapiens, Sorafenib exposure 72 h, read-out: IC50 in inhibiting tumor growth (Sorafenib). On the procedure:
The effect of Sulf2 silencing in combination with Sorafenib in a liver cancer cell model (HepG2 cells) was studied. HepG2 cells incubated with various concentrations of SULF2_1 siRNA for 96 h, and Sorafenib (404) was added after 24 h to allow exposure for 72 h.

The IC50 is the concentration at which inhibition is half-maximal. `CNC(=O)c1cc(Oc2ccc(NC(=O)Nc3ccc(Cl)c(C(F)(F)F)c3)cc2)ccn1` [Sorafenib, sorafenib]: the IC50 was approximately 4 µM.

(Values after patent US20220333108A1, “COMBINATIONS OF SIRNAS WITH SIRNAS AGAINST SULF2 OR GPC3 FOR USE IN TREATING CANCER” (Sirnaomics, Inc., priority 2021, published 2022).)
